Among the data in patent publication US10689343B2, “Inhibitors of tryptophan 2,3-dioxygenase” (NETHERLANDS TRANSLATIONAL RESEARCH CENTER B.V., priority 2016, dated 2020) are IC50 values, retold here.

In one experiment the target is CYP3A4 (Homo sapiens, UniProt P08684). Description: P450-Glo CYP3A4 luciferin isopropylacetal (Luc-IP) assay.
The next experiment addresses T1, Recombinant TDO (Homo sapiens, UniProt P48775).
T1 construct: Recombinant TDO (Seegers, N., et al.) and all other assay components were diluted in TDO reaction buffer
The experiment in a line: Biochemical assay for TDO (NFK GreenScreen). Particulars: 50 nM TDO, 200 μM L-tryptophan. The essentials: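 Recombinant human TDO (50 nM) preincubated with compound 60 min at room temperature in 100 mM NaH2PO4 pH 7.0, 0.02% Tween-20, with ascorbic acid. Reaction then run 15 min with 200 μM L-tryptophan (final), 0.3% DMSO. NFK product detected by NFK Green fluorescence after 3 h at 37° C; IC50 derived.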

Another experiment addresses CYP2D6 (Homo sapiens, UniProt P10635). Description: P450-Glo CYP2D6 Luc-IP assay.
Experiment [1] concerns the target T2, TDO in SW48 colorectal carcinoma cells (Homo sapiens, UniProt P48775).
T2 construct: Endogenous expression of TDO has been determined in a variety of cancer cell lines; host or cells: SW48 colorectal carcinoma cells
Description: Cell-based assay for TDO in SW48 colorectal carcinoma cells (NFK GreenScreen). Particulars: 18 hours with L-tryptophan, read-out: IC50 on TDO in cells. As to the method: The biological activity of TDO inhibitors can be measured by applying above detection methods to cells that are treated with test compound. Endogenous expression of TDO has been determined in a variety of cancer cell lines (Pilotte et al.; Seegers, et al.), or TDO can be expressed in cells that lack endogenous TDO by transfection of an expression vector containing TDO cDNA. […] A preferred assay is the cell-based NFK GreenScreen™ assay (Seegers et al, supra), which measures the cellular inhibitory activity of compounds on TDO. […] No. V9920). Cell-Based Assay for TDO The NFK GreenScreen™ assay technology was also used to determine the inhibitory activity of compounds on TDO in SW48 colorectal carcinoma cells (Seegers, N., et al., J. Biol. Screen. 19: 1266; 2014). […] Compounds were dissolved in DMSO and diluted in RPMI 1640. Final DMSO concentration in the assay was 0.4% (v/v). Eight thousand cells per well in 40 μl were seeded in a black 384-well tissue plate (cat. No. 781086; […] To determine NFK levels, 12 μl NFK Green™ (NTRC, Oss, The Netherlands) was added to each well, and the plate was sealed and incubated for 4 hours at 37° C. Fluorescence was measured on an EnVision multimode reader (Perkin Elmer, Waltham, Mass., USA).

Where “and” joins values, the source holds several entries; their conditions need not be identical. Equal values may be shown once. Bounds are passed on as bounds.

Chain of CYP3A4 (P08684 whole entry): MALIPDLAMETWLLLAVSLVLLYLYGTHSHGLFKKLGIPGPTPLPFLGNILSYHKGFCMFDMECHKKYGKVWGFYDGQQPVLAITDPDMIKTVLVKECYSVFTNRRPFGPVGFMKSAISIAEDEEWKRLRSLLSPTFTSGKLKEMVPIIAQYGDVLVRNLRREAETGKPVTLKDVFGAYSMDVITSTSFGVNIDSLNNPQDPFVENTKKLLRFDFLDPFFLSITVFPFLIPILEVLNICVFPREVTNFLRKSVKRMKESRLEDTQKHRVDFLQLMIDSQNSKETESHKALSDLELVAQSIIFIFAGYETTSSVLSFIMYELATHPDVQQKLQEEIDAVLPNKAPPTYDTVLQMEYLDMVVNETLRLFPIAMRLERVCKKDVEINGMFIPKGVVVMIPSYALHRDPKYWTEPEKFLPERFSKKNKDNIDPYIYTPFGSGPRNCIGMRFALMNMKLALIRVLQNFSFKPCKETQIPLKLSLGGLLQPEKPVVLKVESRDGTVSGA
T2 sequence (P48775 whole entry): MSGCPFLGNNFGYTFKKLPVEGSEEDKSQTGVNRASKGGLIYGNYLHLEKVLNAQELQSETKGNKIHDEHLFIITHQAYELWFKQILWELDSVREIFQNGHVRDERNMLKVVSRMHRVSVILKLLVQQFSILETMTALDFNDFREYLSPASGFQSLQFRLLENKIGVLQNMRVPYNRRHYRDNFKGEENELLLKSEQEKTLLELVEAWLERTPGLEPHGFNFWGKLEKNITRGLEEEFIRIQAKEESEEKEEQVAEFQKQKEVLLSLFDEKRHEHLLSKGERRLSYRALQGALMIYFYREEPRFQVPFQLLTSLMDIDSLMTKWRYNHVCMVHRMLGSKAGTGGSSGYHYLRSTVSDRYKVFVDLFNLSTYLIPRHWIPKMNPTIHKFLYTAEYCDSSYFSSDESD
T1 sequence (P48775 whole entry): as above
Chain of CYP2D6 (P10635 whole entry): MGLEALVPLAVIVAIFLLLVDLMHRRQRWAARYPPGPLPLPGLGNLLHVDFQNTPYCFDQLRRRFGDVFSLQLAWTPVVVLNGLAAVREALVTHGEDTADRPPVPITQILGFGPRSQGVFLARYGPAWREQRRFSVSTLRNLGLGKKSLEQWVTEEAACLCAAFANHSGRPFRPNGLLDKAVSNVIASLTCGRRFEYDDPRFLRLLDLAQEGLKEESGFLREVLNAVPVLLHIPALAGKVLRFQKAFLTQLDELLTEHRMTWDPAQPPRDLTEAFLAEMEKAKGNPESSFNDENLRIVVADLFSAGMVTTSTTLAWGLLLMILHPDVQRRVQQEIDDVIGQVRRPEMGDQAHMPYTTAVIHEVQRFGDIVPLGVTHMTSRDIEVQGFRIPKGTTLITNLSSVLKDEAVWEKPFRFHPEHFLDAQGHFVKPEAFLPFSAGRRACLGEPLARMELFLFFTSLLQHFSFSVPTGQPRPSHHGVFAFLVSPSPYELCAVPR

Take `O=C(N[C@H]1CCCNC1)c1ccc(-c2c[nH]c3cc(F)ccc23)cc1Cl` [Example 55, 2-Chloro-4-(6-fluoro-1H-indol-3-yl)-N-[(3S)-3-piperidyl]benzamide]: the IC50 against CYP3A4 was 5000 to 10000 nM; on Recombinant TDO, less than 1000 nM; against CYP2D6 it was greater than 10000 nM; in experiment [1], no more than 200 nM.
In the case of `C[C@H](CO)NC(=O)c1c(F)cc(-c2c[nH]c3cc(F)ccc23)cc1F` [Example 56, 2,6-Difluoro-4-(6-fluoro-1H-indol-3-yl)-N-[(1R)-2-hydroxy-1-methyl-ethyl]benzamide], the IC50 is greater than 10000 nM against CYP3A4; less than 1000 nM at Recombinant TDO; greater than 10000 nM against CYP2D6; ≤ 500 nM and 200 to 500 nM in experiment [1].
Consider `O=C(NCC(F)(F)F)c1c(F)cc(-c2c[nH]c3cc(F)ccc23)cc1F` [Example 57, 2,6-Difluoro-4-(6-fluoro-1H-indol-3-yl)-N-(2,2,2-trifluoroethyl)benzamide], for which the IC50 is 5000 to 10000 nM against CYP3A4; less than 1000 nM on Recombinant TDO; 5000 to 10000 nM on CYP2D6; ≤ 500 nM and 200 to 500 nM in experiment [1].
Take `O=C(N[C@H]1CCCNC1)c1c(F)cc(-c2c[nH]c3cc(F)ccc23)cc1F` [Example 58, 2,6-Difluoro-4-(6-fluoro-1H-indol-3-yl)-N-[(3S)-3-piperidyl]benzamide]: the IC50 at CYP3A4 is greater than 10000 nM; on Recombinant TDO, less than 1000 nM; at CYP2D6, greater than 10000 nM; in experiment [1], no more than 200 nM.
Take `CN(C)CCCNC(=O)c1c(F)cc(-c2c[nH]c3cc(F)ccc23)cc1F` [Example 59, N-[3-(dimethylamino)propyl]-2,6-difluoro-4-(6-fluoro-1H-indol-3-yl)benzamide]: the IC50 is greater than 10000 nM against CYP3A4; less than 1000 nM on Recombinant TDO; greater than 10000 nM at CYP2D6; ≤ 500 nM and 200 to 500 nM in experiment [1].
As for `C[C@@H](CO)NC(=O)c1c(F)cc(-c2c[nH]c3cc(F)ccc23)cc1F` [Example 60, 2,6-Difluoro-4-(6-fluoro-1H-indol-3-yl)-N-[(1S)-2-hydroxy-1-methyl-ethyl]benzamide], the IC50 is greater than 10000 nM against CYP3A4; less than 1000 nM on Recombinant TDO; greater than 10000 nM against CYP2D6; ≤ 500 nM and 200 to 500 nM in experiment [1].
On to `N[C@H]1CC[C@@H](NC(=O)c2ccc(-c3c[nH]c4cc(F)ccc34)cc2)CC1` [Example 61, N-(cis-4-aminocyclohexyl)-4-(6-fluoro-1H-indol-3-yl)benzamide], for which the IC50 against CYP3A4 was 5000 to 10000 nM; at Recombinant TDO, less than 1000 nM; against CYP2D6, greater than 10000 nM; in experiment [1], ≤ 500 nM and 200 to 500 nM.
On to `O=C(NCC1(O)CCC1)c1ccc(-c2c[nH]c3cc(F)ccc23)cc1` [Example 62, 4-(6-Fluoro-1H-indol-3-yl)-N-[(1-hydroxycyclobutyl)methyl]benzamide], for which the IC50 is 5000 to 10000 nM at CYP3A4; less than 1000 nM at Recombinant TDO; greater than 10000 nM at CYP2D6; ≤ 500 nM and 200 to 500 nM in experiment [1].
For `CN1CCC(O)(CNC(=O)c2ccc(-c3c[nH]c4cc(F)ccc34)cc2)CC1` [Example 63, 4-(6-Fluoro-1H-indol-3-yl)-N-[(4-hydroxy-1-methyl-4-piperidyl)methyl]benzamide], the IC50 at CYP3A4 was greater than 10000 nM; at Recombinant TDO, less than 1000 nM; at CYP2D6 it was greater than 10000 nM; in experiment [1] it was ≤ 500 nM and 200 to 500 nM.
`O=C(NC1[C@H]2COC[C@@H]12)c1ccc(-c2c[nH]c3cc(F)ccc23)cc1` (stereo partly drawn) [Example 64, 4-(6-Fluoro-1H-indol-3-yl)-N-[(1R,5S)-3-oxabicyclo[3.1.0]hexan-6-yl]benzamide]: the IC50 at CYP3A4 was greater than 10000 nM; at Recombinant TDO it was less than 1000 nM; on CYP2D6, greater than 10000 nM; in experiment [1] it was ≤ 500 nM and 200 to 500 nM.
`O=C(NOC[C@@H](O)CO)c1ccc(-c2c[nH]c3cc(F)ccc23)cc1` [Example 66, N-[(2S)-2,3-dihydroxypropoxy]-4-(6-fluoro-1H-indol-3-yl)benzamide]: the IC50 at CYP3A4 is 5000 to 10000 nM; on Recombinant TDO, less than 1000 nM; against CYP2D6, greater than 10000 nM; in experiment [1], ≤ 500 nM and 200 to 500 nM.
Turning to `CN1CCCC(NC(=O)c2ccc(-c3c[nH]c4cc(F)ccc34)cc2Cl)C1` (stereo not drawn) [Example 68, 2-Chloro-4-(6-fluoro-1H-indol-3-yl)-N-(1-methyl-3-piperidyl)benzamide], the IC50 is 5000 to 10000 nM against CYP3A4, less than 1000 nM at Recombinant TDO, greater than 10000 nM against CYP2D6 and no more than 200 nM in experiment [1].
As to `CN1CCC(NC(=O)c2ccc(-c3c[nH]c4cc(F)ccc34)cc2Cl)CC1` [Example 69, 2-Chloro-4-(6-fluoro-1H-indol-3-yl)-N-(1-methyl-4-piperidyl)benzamide], the IC50 at CYP3A4 is greater than 10000 nM; on Recombinant TDO, less than 1000 nM; on CYP2D6, greater than 10000 nM; in experiment [1], no more than 200 nM.
In the case of `O=C(NCCN1CCCC1)c1ccc(-c2c[nH]c3cc(F)ccc23)cc1Cl` [Example 70, 2-Chloro-4-(6-fluoro-1H-indol-3-yl)-N-(2-pyrrolidin-1-ylethyl)benzamide], the IC50 against CYP3A4 was 5000 to 10000 nM; at Recombinant TDO, less than 1000 nM; against CYP2D6, greater than 10000 nM; in experiment [1], no more than 200 nM.
Turning to `CC(N)CNC(=O)c1ccc(-c2c[nH]c3cc(F)ccc23)cc1Cl` (stereo not drawn) [Example 71, N-(2-aminopropyl)-2-chloro-4-(6-fluoro-1H-indol-3-yl)benzamide], the IC50 was 5000 to 10000 nM against CYP3A4, less than 1000 nM on Recombinant TDO, greater than 10000 nM against CYP2D6 and no more than 200 nM in experiment [1].
In the case of `CN1CCN(CCCNC(=O)c2ccc(-c3c[nH]c4cc(F)ccc34)cc2Cl)CC1` [Example 72, 2-Chloro-4-(6-fluoro-1H-indol-3-yl)-N-[3-(4-methylpiperazin-1-yl)propyl]benzamide], the IC50 is 5000 to 10000 nM against CYP3A4, less than 1000 nM at Recombinant TDO, 5000 to 10000 nM against CYP2D6 and no more than 200 nM in experiment [1].
As to `CCN(CC)CC(C)NC(=O)c1ccc(-c2c[nH]c3cc(F)ccc23)cc1Cl` (stereo not drawn) [Example 73, 2-Chloro-N-[2-(diethylamino)-1-methyl-ethyl]-4-(6-fluoro-1H-indol-3-yl)benzamide], the IC50 was greater than 10000 nM against CYP3A4, less than 1000 nM on Recombinant TDO, greater than 10000 nM at CYP2D6 and no more than 200 nM in experiment [1].
Regarding `O=C(N[C@@H]1CCNC[C@@H]1F)c1ccc(-c2c[nH]c3cc(F)ccc23)cc1` [Example 74, 4-(6-Fluoro-1H-indol-3-yl)-N-[(3S,4R)-3-fluoro-4-piperidyl]benzamide], the half-inhibitory concentration (IC50) against CYP3A4 was 5000 to 10000 nM; at Recombinant TDO, less than 1000 nM; against CYP2D6, greater than 10000 nM; in experiment [1], no more than 200 nM.
Consider `COc1cc(-c2c[nH]c3cc(F)ccc23)ccc1C(=O)N[C@H]1CCCNC1` [Example 75, 4-(6-Fluoro-1H-indol-3-yl)-2-methoxy-N-[(3S)-3-piperidyl]benzamide], for which the IC50 on CYP3A4 was 5000 to 10000 nM; at Recombinant TDO, less than 1000 nM; against CYP2D6, greater than 10000 nM; in experiment [1], no more than 200 nM.
For `O=C(NCC1(F)CCNCC1)c1ccc(-c2c[nH]c3cc(F)ccc23)cc1` [Example 76, 4-(6-Fluoro-1H-indol-3-yl)-N-[(4-fluoro-4-piperidyl)methyl]benzamide], in that order: greater than 10000 nM, less than 1000 nM, greater than 10000 nM and no more than 200 nM.
For the compound `O=C(NCCN1CCCC1)c1ccc(-c2c[nH]c3cc(F)ccc23)cc1` [Example 77, 4-(6-Fluoro-1H-indol-3-yl)-N-(2-pyrrolidin-1-ylethyl)benzamide], the IC50 against CYP3A4 is greater than 10000 nM; on Recombinant TDO, less than 1000 nM; against CYP2D6, greater than 10000 nM; in experiment [1], no more than 200 nM.
For the compound `CN(C)CC(O)CNC(=O)c1ccc(-c2c[nH]c3cc(F)ccc23)cc1` (stereo not drawn) [Example 78, N-[3-(dimethylamino)-2-hydroxy-propyl]-4-(6-fluoro-1H-indol-3-yl)benzamide], the IC50 at CYP3A4 was greater than 10000 nM; at Recombinant TDO, less than 1000 nM; against CYP2D6 it was greater than 10000 nM; in experiment [1], no more than 200 nM.
As for `CCN(CC)CC(C)NC(=O)c1ccc(-c2c[nH]c3cc(F)ccc23)cc1OC` (stereo not drawn) [Example 79, N-[2-(diethylamino)-1-methyl-ethyl]-4-(6-fluoro-1H-indol-3-yl)-2-methoxy-benzamide], the IC50 on CYP3A4 was greater than 10000 nM; on Recombinant TDO it was less than 1000 nM; against CYP2D6 it was greater than 10000 nM; in experiment [1], no more than 200 nM.
`CS(=O)(=O)CC(=O)Nc1ccc(-c2c[nH]c3cc(F)ccc23)cc1` [Example 80, N-[4-(6-fluoro-1H-indol-3-yl)phenyl]-2-methylsulfonyl-acetamide]: the IC50 against CYP3A4 is greater than 10000 nM; on Recombinant TDO, 1000 to 5000 nM; against CYP2D6 it was greater than 10000 nM; in experiment [1], no more than 200 nM.

The IC50 is the concentration that gives 50% inhibition.
